What was measured:
hPPARα = target: T1, hPPARα (Homo sapiens, UniProt Q07869); assay: PPAR/Gal4 chimera luciferase reporter transactivation assay in transiently transfected Cos-7 cells (hPPARα); format: cell-based
T1 sequence (Q07869 167-468): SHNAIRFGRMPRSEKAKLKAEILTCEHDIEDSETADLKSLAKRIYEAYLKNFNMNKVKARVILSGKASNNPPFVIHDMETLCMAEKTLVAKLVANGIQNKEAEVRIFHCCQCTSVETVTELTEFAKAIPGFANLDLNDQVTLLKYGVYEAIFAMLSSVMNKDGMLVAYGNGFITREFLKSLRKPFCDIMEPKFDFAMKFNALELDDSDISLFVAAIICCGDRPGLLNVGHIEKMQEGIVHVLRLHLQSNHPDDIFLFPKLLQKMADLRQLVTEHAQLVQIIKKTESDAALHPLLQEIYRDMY
Protocol: (§1) The cells were maintained under standard culture conditions (Dulbecco modified minimum essential Eagle medium, DMEM) supplemented with 10% fetal calf serum (FCS) at 37°C in 5% […] CO2 atmosphere. The medium was changed every 2 days. The Cos-7 cells were seeded in 60 mm discs at a density of 5.5 × 10^5 cells/disc in DMEM supplemented with 10% FCS and incubated at 37°C for 16 h before transfection. The cells were transfected in DMEM using jetPEI, with reporter (pG5-TK-pGL3) and expression (pGal4-h, hPPARα or hPPARγ) plasmids. The expression plasmid pCMV-β-galactosidase was cotransfected as a control for transfection efficacy. After 16 h the transfection was stopped adding DMEM supplemented with 10% FCS, and the cells were trypsinised and seeded in 96-well plates and incubated for 6 h in DMEM containing 10% FCS. Subsequently, the cells were incubated for 24 h in DMEM containing 0.2% FCS and increasing concentrations of the compounds or the vehicle (DMSO, maximum concentration 0.1%) were tested. Finally, the cells were washed once with PBS cooled on ice, lysed and the luciferase and β-galactosidase assays were performed.
(§2) To evaluate the compounds for PPAR transcriptional activity, the tests were conducted in a PPAR/Gal4 chimera of a human luciferase reporter gene to determine the maximum transactivation response of each compound.

p38 MAPK = assay: Flow cytometry of TNFα-induced p38 MAPK phosphorylation in HUVEC; format: cell-based, human; details: TNFα 20 ng/mL 1 h
Protocol: (§3) HUVEC were previously incubated for 24 h with compound 1 (10 µM), for use according to the present invention, or with compound 9 (3 µM), of the invention, and stimulated for 1 h with TNFα (20 ng/mL). The endothelial cells were fixed with BD Cytofix Fixation Buffer (BD Biosciences, San Jose, CA) and permeabilized with BD Sol Perm III solution (BD Biosciences, San Jose, CA) and sequentially stained with a 1:10 dilution of a PE-conjugated mAb antibody against human p65 (pS529, clone K10-895.12.50; BD Biosciences, San Jose, CA) and a 1:10 dilution of Alexa Fluor-conjugated mAb antibody against human p38 MAPK ([…], clone 36/p38; BD Biosciences, San Jose, CA). The cells were analyzed with a BD FACSVerse flow cytometer (BD Biosciences, San Jose, CA).

hPPARγ = target: T2, hPPARγ (Homo sapiens, UniProt P37231); assay: PPAR/Gal4 chimera luciferase reporter transactivation assay in transiently transfected Cos-7 cells (hPPARγ); format: cell-based
T2 sequence (P37231 238-505): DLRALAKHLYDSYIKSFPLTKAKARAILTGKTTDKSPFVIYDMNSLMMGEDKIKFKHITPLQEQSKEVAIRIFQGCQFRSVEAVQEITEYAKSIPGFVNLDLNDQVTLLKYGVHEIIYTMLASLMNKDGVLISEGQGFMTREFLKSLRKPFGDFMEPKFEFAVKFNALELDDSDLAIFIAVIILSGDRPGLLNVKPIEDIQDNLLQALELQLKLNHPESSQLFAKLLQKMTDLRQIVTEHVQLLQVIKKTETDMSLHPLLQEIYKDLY
Protocol: as §1, §2

[1] = system: mononuclear cell adhesion to HUVEC induced by TNFα; assay: Parallel flow chamber: mononuclear cell adhesion to TNFα-stimulated HUVEC; format: cell-based, human
Protocol: The parallel flow camera technique was used, which allows viewing cell adhesion under dynamic physiological flow conditions.
In the execution of this study, neutrophils and mononuclear cells were perfused through monolayers of HUVEC previously stimulated, or not, with TNFα (20 ng/mL) for 24 h. For this purpose, the neutrophils and human mononuclear cells were obtained in suspension from healthy volunteers by the Ficoll-Hypaque method, centrifuging by density gradient. Freshly isolated cells (1 × 10^6/mL) were perfused through the monolayer of endothelial cells (HUVEC) stimulated, or not, with TNFα for 24 h. In all the experiments the interactions of the leukocytes were determined after being perfused for 5 min at 0.5 dyne/cm^2. The HUVEC plates were placed in the flow chamber (GlycoTech, Gaithersburg, MD) and a camera was coupled to a phase-contrast inverted microscope (Axio Observer A1 Carl Zeiss microscope, Thornwood, NY) to view cell adhesion (20x lens and 10x eyepiece). In addition, the images were recorded on video for subsequent analysis.

NF-κB (p65) = assay: Flow cytometry of TNFα-induced p65 (NF-κB) phosphorylation in HUVEC; format: cell-based, human; details: TNFα 20 ng/mL 1 h
Protocol: as §3

ICAM-1 = assay: Flow cytometry of TNFα-induced ICAM-1 expression in HUVEC; format: cell-based, human; details: TNFα 20 ng/mL 24 h
Protocol: (§4) The cells were collected from the flasks using accutase (StemPro® Accutase® Cell Dissociation Reagent, ThermoFischer Scientific, Waltham, MA).
(§5) Then they were washed and incubated for 1 h with a APC-conjugated mAb antibody against human VCAM-1 (100 µg/mL; clone STA, BioLegend, San Diego, CA), a FITC- conjugated mAb against human ICAM-1 (400 µg/mL; clone HA58, BioLegend, San Diego, CA), a PE-conjugated mAb against human CX3CL1 (1.25 µg/mL; clone 51637, R&D Systems, Minneapolis, MN) or with a APC-conjugated mAb antibody against human CXCL16 (clone 256213, R&D Systems, Abingdon, UK), all at a dilution of 1:25 in 3% BSA/PBS. The samples were analyzed using a BD FACSVerse Flow Cytometer (BD Biosciences, San Jose, CA).

VCAM-1 = assay: Flow cytometry of TNFα-induced VCAM-1 expression in HUVEC; format: cell-based, human; details: TNFα 20 ng/mL 24 h
Protocol: as §4, §5

CX3CL1 = assay: Flow cytometry of TNFα-induced CX3CL1 (fractalkine) expression in HUVEC; format: cell-based
Protocol: as §4, §5

CXCL16 = assay: Flow cytometry of TNFα-induced CXCL16 expression in HUVEC; format: cell-based, human; details: 3 µM, TNFα 20 ng/mL 24 h
Protocol: as §4, §5

[2] = ratio of IC50, mononuclear cell adhesion

Question: Which Emax (hPPARα; COS-7, read-out: hPPARα Efficacy (%)) does the source give for `C/C(=C\CCC1(C)CCc2cc(O)cc(C)c2O1)CC/C=C(\C)C(=O)O` (stereo not drawn) [Polycerasoidol, 1, polycerasoidol] here?
Answer: 107%

Question: What about the “decrease of the activation of p38 MAPK” value (p38 MAPK; 10 µM) of the same compound?
Answer: 63.4%

Question: What about the Emax (hPPARγ; COS-7, read-out: hPPARγ Efficacy (%)) of the same compound?
Answer: 95%

Question: And the IC50 ([1]; Homo sapiens, HUVEC, pretreatment 20 h, TNFα 20 ng/mL 24 h, perfusion 5 min at 0.5 dyn/cm2, read-out: IC50 adhesion of HUVEC-mononuclear cells)?
Answer: 4900 nM

Question: What about the “times less potent than rosiglitazone” value [1, 2] of the same compound?
Answer: 5

Question: And the “activation of NF-κB induced by TNFα” value (NF-κB (p65); 10 µM)?
Answer: inhibit significantly

Question: And the “inhibition of ICAM-1 expression induced by TNFα” value (ICAM-1; 10 µM, 20 h pretreatment)?
Answer: 23.8%

Question: And the “inhibition of VCAM-1 expression induced by TNFα” value (VCAM-1; 10 µM, 20 h pretreatment)?
Answer: 87.8%

Question: And the “reduced the expression of fractalkine (CX3CL1)” value (CX3CL1; 10 µM, TNFα 24 h)?
Answer: 77.6%

Question: `CCOC(=O)CCC(C)=CCCC1(C)CCc2cc(OCc3ccc(F)cc3)ccc2O1` (stereo not drawn) [Compound 9] was tested. Which “hPPARα Efficacy (%)” value (hPPARα; maximum activity as percentage of the maximum activity of WY-14643) did it give?
Answer: 251%

Question: What about the EC50 (hPPARα; read-out: hPPARα EC50, Cos-7 cells, 24 h, tested 0.001 to 10 µM) of the same compound?
Answer: 300 nM

Question: And the “expression of CXCL16 induced by TNFα” value (CXCL16)?
Answer: significant decrease

Question: And the “decrease of the activation of p38 MAPK” value (p38 MAPK; 3 µM)?
Answer: 71.9%

Question: And the “hPPARγ Efficacy (%)” value (hPPARγ; maximum activity as percentage of the maximum activity of rosiglitazone)?
Answer: 57%

Question: And the EC50 (hPPARγ; read-out: hPPARγ EC50, Cos-7 cells, 24 h, tested 0.001 to 10 µM)?
Answer: 400 nM

Question: And the “potency times greater than polycerasoidol” value [1, 2]?
Answer: ~16

Question: And the “potency times greater than rosiglitazone” value [1, 2]?
Answer: approximately 3.6

Question: What about the “activation of NF-κB induced by TNFα” value (NF-κB (p65); 3 µM) of the same compound?
Answer: inhibit significantly

Question: And the “expression of ICAM-1 induced by TNFα” value (ICAM-1; 3 µM)?
Answer: but not ICAM-1

Question: And the “expression of VCAM-1 induced by TNFα” value (VCAM-1; 3 µM)?
Answer: significant decrease

Question: What about the “expression of CX3CL1 induced by TNFα” value (CX3CL1; 3 µM, TNFα 20 ng/mL 24 h) of the same compound?
Answer: significant decrease
